{
  "source": "patent US9572349B2",
  "about": "(priority 2009, dated 2017)",
  "system": "D. citri",
  "type": "in vivo, Diaphorina citri",
  "settings": "four-arm olfactometer; for Percentage of individuals that chose each compound, final choice / Percentage of individuals that chose each compound, first choice: 10 μL pure compound in two arms versus clean air in two arms, 5 min observation; for Behavioural response of psyllids to pure compound (in words): 10 μL pure compound versus clean air",
  "data": [
    {"smiles": "C=C1CC/C=C(\\C)CC[C@@H]2[C@@H]1CC2(C)C", "note": "[β-caryophyllene]", "values": [
      {"measurement": "Percentage of individuals that chose each compound, final choice", "value": 32.0, "unit": "%"},
      {"measurement": "Percentage of individuals that chose each compound, first choice", "value": 42.3, "unit": "%"},
      {"measurement": "Behavioural response of psyllids to pure compound (in words)", "value": "higher level of psyllids entering the unscented arm"}
    ]},
    {"smiles": "CC1=CC[C@H]2[C@H]3[C@@H]1[C@]2(C)CC[C@H]3C(C)C", "note": "[α-copaene]", "values": [
      {"measurement": "Percentage of individuals that chose each compound, final choice", "value": 33.0, "unit": "%"},
      {"measurement": "Percentage of individuals that chose each compound, first choice", "value": 42.0, "unit": "%"},
      {"measurement": "Behavioural response of psyllids to pure compound (in words)", "value": "higher level of psyllids entering the unscented arm"}
    ]}
  ]
}
